Assay results: patent US20040142048A1, “Compositions based on proanthocyanadin-catechin synergies for prevention and treatment of cancer” (priority 2004, published 2004)

What was measured:
[1] = Clearance of EGCg from the blood; settings: in vivo
cancer cells = assay: Effect of EGCg on cancer cell growth and apoptosis; assay type: cell-based

Substance: (−)-epigallocatechin gallate [EGCg]
- clearance from the blood [1]: rapidly cleared from the blood and metabolized
- time cancer cells must be inhibited from growing before EGCg-induced apoptosis occurs (cancer cells): 48 to 72 h
- growth of cancer cells challenged with EGCg (cancer cells; 10^−7 M EGCg every two hours during the day): growth is inhibited
- reversibility of the effect on cancer cell growth (cancer cells; EGCg removed, cells resume normal rates of growth): reversible
